Patent publication US12180187B2, “1-phenyl-5-azinylpyrazolyl-3-oxyalkyl acids and their use for controlling unwanted plant growth” (BAYER AKTIENGESELLSCHAFT, priority 2019, dated 2024)

Key:
AMARE [1] = test: Post-emergence action against AMARE, 1.28 kg/ha; type: in vivo, Amaranthus retroflexus; details: dosage 1280 g/ha, visual rating about 3 weeks after treatment vs untreated controls (100% = plants died)
How it was run: (§1)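 Greenhouse-grown weeds (sandy loam, twin-sown pots) were treated 2–3 weeks post-sowing at one leaf. The spray was an aqueous WP/EC preparation plus 0.5% additive, applied at 600 L/ha. Scoring was visual at ~3 weeks, 0–100% versus untreated controls.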

ECHCG [2] = test: Pre-emergence action against ECHCG, 1280 g/ha; type: in vivo, Echinochloa crus-galli; details: visual scoring after about 3 weeks vs untreated controls, 100% = plants have died, 0% = like control plants
How it was run: (§2)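 Weed seeds sown in sandy loam in pots, covered with soil; compound as WP or EC applied to soil surface as aqueous suspension/emulsion with 0.5% additive at 600 L/ha water. Greenhouse, good growth conditions; visual % damage vs untreated controls after about 3 weeks (100% = plants dead, 0% = like control).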

SETVI [3] = test: Pre-emergence action against SETVI, 1280 g/ha; type: in vivo, Setaria viridis; details: visual scoring after about 3 weeks vs untreated controls, 100% = plants have died, 0% = like control plants
How it was run: as §2

LOLRI [4] = test: Pre-emergence action against LOLRI, 1280 g/ha; type: in vivo, Lolium rigidum; details: visual scoring after about 3 weeks vs untreated controls, 100% = plants have died, 0% = like control plants
How it was run: as §2

MATIN [5] = test: Post-emergence action against MATIN, 1.28 kg/ha; type: in vivo, Tripleurospermum inodorum (Matricaria inodora); details: dosage 1280 g/ha, visual rating about 3 weeks after treatment vs untreated controls (100% = plants died)
How it was run: as §1

DIGSA [6] = test: Pre-emergence action against DIGSA, 1280 g/ha; type: in vivo, Digitaria sanguinalis; details: visual scoring after about 3 weeks vs untreated controls, 100% = plants have died, 0% = like control plants
How it was run: as §2

POAAN [7] = test: Pre-emergence action against POAAN, 1280 g/ha; type: in vivo, Poa annua; details: visual scoring after about 3 weeks vs untreated controls, 100% = plants have died, 0% = like control plants
How it was run: as §2

MATIN [8] = test: Pre-emergence action against MATIN, 1280 g/ha; type: in vivo, Tripleurospermum inodorum (Matricaria inodora); details: scored visually after about 3 weeks vs untreated controls (100% = plants have died)
How it was run: as §2

LOLRI [9] = test: Post-emergence action against LOLRI, 1.28 kg/ha; type: in vivo, Lolium rigidum; details: dosage 1280 g/ha, visual rating about 3 weeks after treatment vs untreated controls
Experimental: (§3) • a) Seeds of mono- and dicotyledonous weed plants are placed in plastic pots in sandy loam soil (twin sowing with one species each of mono- or dicotyledonous weed plants per pot), covered with soil and cultivated in a greenhouse under controlled growth conditions. 2 to 3 weeks after sowing, the test plants are treated at the one-leaf stage. The compounds of the invention, formulated in the form of wettable powders (WP) or as emulsion concentrates (EC), are applied to the green parts of the plants as aqueous suspension or emulsion with addition of 0.5% additive at a water application rate equivalent to 600 litres per hectare. After the test plants have been kept in the greenhouse under optimum growth conditions for about 3 weeks, the activity of the preparations is rated visually in comparison to untreated controls. For example, 100% activity=the plants have died, 0% activity=like control plants. As shown by the results, compounds of the general formula (I) of the invention, in post-emergence treatment, have very good herbicidal efficacy (90% to 100% herbicidal action) against harmful plants such as Abutilon theophrasti, Digitaria sanguinalis, Echinochloa crus-galli, Matricaria inodora, Poa annua, at an application rate of 1.28 kg of active substance per hectare.

ECHCG [10] = test: Post-emergence action against ECHCG, 1.28 kg/ha; type: in vivo, Echinochloa crus-galli; details: dosage 1280 g/ha, visual rating about 3 weeks after treatment vs untreated controls
How it was run: as §1

VERPE [11] = test: Pre-emergence action against VERPE, 1280 g/ha; type: in vivo, Veronica persica; details: scored visually after about 3 weeks vs untreated controls (100% = plants have died)
How it was run: as §2

DIGSA [12] = test: Post-emergence action against DIGSA, 1.28 kg/ha; type: in vivo, Digitaria sanguinalis; details: dosage 1280 g/ha, visual rating about 3 weeks after treatment vs untreated controls
How it was run: as §1

STEME [13] = test: Post-emergence action against STEME, 1.28 kg/ha; type: in vivo, Stellaria media; details: dosage 1280 g/ha, visual rating about 3 weeks after treatment vs untreated controls (100% = plants died)
Experimental: as §3

VERPE [14] = test: Post-emergence action against VERPE, 1.28 kg/ha; type: in vivo, Veronica persica; details: dosage 1280 g/ha, visual rating about 3 weeks after treatment vs untreated controls (100% = plants died)
How it was run: as §1

ABUTH = test: Post-emergence action against ABUTH, 1.28 kg/ha; type: in vivo, Abutilon theophrasti; details: dosage 1280 g/ha, visual rating about 3 weeks after treatment vs untreated controls (100% = plants died)
How it was run: as §1

AMARE [15] = test: Pre-emergence action against AMARE, 1280 g/ha; type: in vivo, Amaranthus retroflexus; details: scored visually after about 3 weeks vs untreated controls (100% = plants have died)
How it was run: as §2

STEME [16] = test: Pre-emergence action against STEME, 1280 g/ha; type: in vivo, Stellaria media; details: scored visually after about 3 weeks vs untreated controls (100% = plants have died)
How it was run: as §2

POAAN [17] = test: Post-emergence action against POAAN, 1.28 kg/ha; type: in vivo, Poa annua; details: dosage 1280 g/ha, visual rating about 3 weeks after treatment vs untreated controls
How it was run: as §1

ALOMY [18] = test: Post-emergence action against ALOMY, 1.28 kg/ha; type: in vivo, Alopecurus myosuroides; details: dosage 1280 g/ha, visual rating about 3 weeks after treatment vs untreated controls
How it was run: as §1

ALOMY [19] = test: Pre-emergence action against ALOMY, 1280 g/ha; type: in vivo, Alopecurus myosuroides; details: visual scoring after about 3 weeks vs untreated controls, 100% = plants have died, 0% = like control plants
How it was run: as §2

SETVI [20] = test: Post-emergence action against SETVI, 1.28 kg/ha; type: in vivo, Setaria viridis; details: dosage 1280 g/ha, visual rating about 3 weeks after treatment vs untreated controls
Experimental: as §3

SMILES | Post-emergence action against AMARE (AMARE [1]) [%] | Pre-emergence action against ECHCG (ECHCG [2]) [%] | Pre-emergence action against SETVI (SETVI [3]) [%] | Pre-emergence action against LOLRI (LOLRI [4]) [%] | Post-emergence action against MATIN (MATIN [5]) [%] | Pre-emergence action against DIGSA (DIGSA [6]) [%] | Pre-emergence action against POAAN (POAAN [7]) [%] | Pre-emergence action against MATIN (MATIN [8]) [%] | Post-emergence action against LOLRI (LOLRI [9]) [%] | Post-emergence action against ECHCG (ECHCG [10]) [%] | Pre-emergence action against VERPE (VERPE [11]) [%] | Post-emergence action against DIGSA (DIGSA [12]) [%] | Post-emergence action against STEME (STEME [13]) [%] | Post-emergence action against VERPE (VERPE [14]) [%] | Post-emergence action against ABUTH (ABUTH) [%] | Pre-emergence action against AMARE (AMARE [15]) [%] | Pre-emergence action against STEME (STEME [16]) [%] | Post-emergence action against POAAN (POAAN [17]) [%] | Pre-emergence action against ALOMY (ALOMY [19]) [%] | further results
O=C(COc1nn(-c2ccccc2F)c(-c2ccc(F)nc2)c1C(F)(F)F)NS(=O)(=O)CC(F)(F)F [Example X-006] | 100 | 100 | 100 | 100 | 100 | 100 | 100 | 100 | 90 | 100 | 100 | 90 | 100 | 90 | 90 | 100 | 100 | 100 | – | Post-emergence action against ALOMY (ALOMY [18]): 100%
Cc1ccc(-n2nc(OCC(=O)O)c(Br)c2-c2ccc(F)nc2)cc1 [VII-067] | 100 | 100 | 100 | 100 | 90 | 100 | 100 | 100 | 100 | 100 | 100 | 100 | – | – | – | 100 | 100 | 100 | 100 | –
O=C(COc1nn(-c2ccccc2F)c(-c2cncnc2)c1Br)OCc1ccccc1 [VI-002] | 90 | 100 | 100 | 100 | 100 | – | 100 | 90 | 100 | 100 | 90 | – | 90 | 90 | 90 | 100 | 100 | 100 | – | Post-emergence action against SETVI (SETVI [20]): 90%
O=C(COc1nn(-c2ccccc2F)c(-c2ccc(F)nc2)c1Br)OCC1CCCO1 (centres unmarked) [VII-090] | – | 100 | 100 | 100 | 90 | 100 | 100 | 100 | 90 | 100 | 100 | 100 | – | 100 | – | 100 | 100 | 100 | 100 | –
